Laboratory results published in US4748161A, “Triterpenyl esters of organic acids and hypolipidemic agents composed of them” (Amano Pharmaceutical Co., Ltd., priority 1984, dated 1988).

What was measured:
[1] = test system: serum lipids and serum lipid hydroperoxide; experiment: Pharmacological test method A for anti-hyperlipidemic activity (serum lipids, 2 weeks feeding); type: in vivo, male Wistar strain rats
Procedure, shortened: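 Serum TC, HDL-C (heparin precipitation), PL, TG and LPO measured by colorimetric kits, largely at 500 nm, from abdominal aorta blood after 16 h fasting. Rats (male Wistar, 10/group) ate a cholesterol/cholic acid diet 10 g/day for 2 weeks, supplemented with 1% each of three cycloartane triterpenoids.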

male ddy strain mice = experiment: Acute toxicity test, mice, oral; type: in vivo, mouse (male ddy strain); settings: 0.1 to 5 g/Kg; for Mortality: 2 weeks observation
Description: (§1) Acute toxicity tests were conducted using 5 male ddy strain mice (30±2 g) and 5 male Wistar strain rats (100±2 g) for each compound by oral administration.
(§2) The above 66 compounds of esters, and as control drugs, cycloartenol, 24-methylenecycloartanol, cyclobranol, and γ-orizanol were given forcibly to the above-mentioned mice and rats by means of a throat explorer rod in doses of 0.1 to 5 g/Kg for mice and 2 to 6 g/Kg for rats. During the test, the temperature of the animal room was kept at 22° to 23 ° C. […] In the inspection conducted after 2-week observation, no macroscopic lesion was found in any part of main organs. Thus the compound of the invention has very low toxicity, so that the LD50 value could not determined.

male Wistar strain rats = experiment: Acute toxicity test, rats, oral; type: in vivo, rat (male Wistar strain); settings: 2 to 6 g/Kg; for Mortality: 2 weeks observation
Description: as §1, §2

serum TC = settings: 1% added to diet containing 0.5% of cholesterol; cited from earlier work

Row | SMILES | AI change [1] | Symptoms of toxicosis (male ddy strain mice) | Mortality (male ddy strain mice) | Symptoms of toxicosis (male Wistar strain rats) | Mortality (male Wistar strain rats) | percentage of TC lowering (serum TC)
1 | C=C(CCC(C)C1CCC2(C)C3CCC4C(C)(C)C(O)CCC45CC35CCC12C)C(C)C (stereo not drawn) [Sample 3, 24-methylenecycloartanol] | only a slight tendency to increase | no symptom of toxicosis appeared | none of the animals died | no symptom of toxicosis appeared | none of the animals died | 10.2%
2 | CC(C)=CCC[C@@H](C)[C@H]1CC[C@@]2(C)[C@@H]3CC[C@H]4C(C)(C)[C@@H](O)CC[C@@]45C[C@@]35CC[C@]12C [Sample 1, cycloartenol] | showed tendencies to decrease it | no symptom of toxicosis appeared | none of the animals died | no symptom of toxicosis appeared | none of the animals died | 13.7%
